Experimental findings from paper PMC11346435, “Regulation of Rubisco activity by interaction with chloroplast metabolites” (Biochemical Journal, 2024) are described below.

Data set [1] deals with T1, Rubisco (ribulose-1,5-bisphosphate carboxylase/oxygenase), carbamylated rice enzyme (Oryza sativa, UniProt P0C512).
T1 construct: gene rbcL; Rubisco purified from rice leaves (cv. Nipponbare), L8S8 complex, carbamylated; with Rubisco small subunit (L8S8 holoenzyme)
The data set is described as follows: […]CO2 incorporation assay with purified Rubisco, dose-response and Vmax/Km kinetics (competitive inhibition). The data set is classed as biochemical. Conditions: read-out: % inhibition at 12 mM.

Data set [2] deals with O=C(COP(=O)(O)O)[C@H](O)[C@H](O)COP(=O)(O)O. The data set is described as follows: purified protein. Conditions: Mg2+; carbamylated Lys201 (activator CO2) catalytic site.
Data set [3] concerns the target T1, Rubisco (ribulose-1,5-bisphosphate carboxylase/oxygenase), carbamylated rice enzyme. The data set is described as follows: biochemical. More on the design: 14CO2 incorporation by purified activated rice Rubisco; apparent Ki from Michaelis-Menten kinetics. The following applies: noncompetitive-like, apparent Ki. Here is the method:
Water was used as control and for each metabolite an intermediate and the highest concentration were used, with the exceptions of CABP for which the maximum concentration was 0.2 µM (as at the maximum concentration 0.3 µM the activity was very low) and for 3-PGA we used 8 and 12 mM (as these were the concentrations that affected Rubisco activity under saturating substrate concentrations). Basic assay buffer (100 mM Bicine-NaOH, pH 8.2, 20 mM MgCl2 and 2 mM KH2PO4) was sparged with compressed air which passed through soda lime and 1 M NaOH to remove CO2. […] The incubation with metabolite and activity were performed as described above. Vmax and Km were calculated using the Michaelis-Menten equation [58]. […] The incubation and activity were performed as described above and the activity was expressed as % of control samples (where control is 100%). Given the constraints associated with two substrate Rubisco activity and its interaction with tight binding inhibitions, we used a simplistic approximation to estimate apparent inhibitor constants (Kiapp) based on the Michaelis-Menten equations [59] (eqn 1) and on the ‘quotient velocity plot’ [60] (eqn 2). Where [I] is the inhibitor concentration and α was estimated according to the inhibition type: […]

For data set [4] the target is unchanged. The experiment in a line: […]CO2 incorporation assay with purified Rubisco, dose-response and Vmax/Km kinetics. Conditions: read-out: % inhibition at 0.3 μM. It is filed as biochemical.
The target is the same in data set [5]. Described as above. It is filed as biochemical.
[6] abbreviates: Eq. 1 (Michaelis-Menten), read-out: Ki^app (Eq. 1).
Setting [7] is: Eq. 2 (quotient velocity plot), read-out: Ki^app (Eq. 2).

Like-named read-outs stand apart in the source and are kept apart here.

T1 sequence (Q0INY7 47-175, other chains not shown): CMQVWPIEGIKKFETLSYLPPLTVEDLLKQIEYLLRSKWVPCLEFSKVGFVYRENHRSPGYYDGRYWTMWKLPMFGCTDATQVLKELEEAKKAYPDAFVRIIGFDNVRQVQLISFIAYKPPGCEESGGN

The term inhibition denotes the percentage by which the read-out fell short of the control. `O=C(O)[C@H](O)COP(=O)(O)O` [3-PGA]: in data set [1], the inhibition at 12000 µM was about 30%.

As usually defined, the Km is the concentration of substrate that gives half-maximal velocity. For the compound “Rubisco (ribulose-1,5-bisphosphate carboxylase/oxygenase), carbamylated rice enzyme (Oryza sativa Japonica Group)”, the Km in data set [2] came to 78.08 ± 3.29 µM.

Take `O=C(O)[C@@](O)(COP(=O)(O)O)[C@H](O)[C@H](O)COP(=O)(O)O` [CABP]: the figures for the Ki in data set [3] (setting [6]) and in data set [3] (setting [7]) were 120 ± 20 nM and 100 ± 20 nM, respectively. Also, the inhibition at 0.3 µM in data set [4] was about 86%.

Take `O=C(O)[C@@](O)(COP(=O)(O)O)[C@H](O)[C@H](O)CO` [CA1P]: the Ki in data set [3] (setting [6]) stood at 440 ± 80 nM; in data set [3] (setting [7]), 440 ± 10 nM. Also, the “14CO2 incorporation assay with purified Rubisco, dose-response and Vmax/Km kinet” value in data set [5] is reported as “activity decreases by half at 0.3”.
